In ChEMBL document CHEMBL1128255, “Synthesis of 11 beta-[18F]fluoro-5 alpha-dihydrotestosterone and 11 beta-[18F]fluoro-19-nor-5 alpha-dihydrotestosterone: preparation via halofluorination-reduction, receptor binding, and tissue distribution” (J Med Chem, 1995):

Assays:
[1] = %ID/g is percent injected dose per gram of tissue and in vivo distribution of compound obtained after 2 hour (low) in bone; assay type: ADME, organism-based, Bone element
[2] = %ID/g is percent injected dose per gram of tissue and in vivo distribution of compound obtained after 4 hour in prostate (d); assay type: ADME, organism-based, Prostate gland
physchem = details: octanol/water
Description: Partition coefficient (logP)

[3] = biological target: T1, Androgen receptor (Rattus norvegicus) (UniProt P15207)
T1 sequence (whole entry): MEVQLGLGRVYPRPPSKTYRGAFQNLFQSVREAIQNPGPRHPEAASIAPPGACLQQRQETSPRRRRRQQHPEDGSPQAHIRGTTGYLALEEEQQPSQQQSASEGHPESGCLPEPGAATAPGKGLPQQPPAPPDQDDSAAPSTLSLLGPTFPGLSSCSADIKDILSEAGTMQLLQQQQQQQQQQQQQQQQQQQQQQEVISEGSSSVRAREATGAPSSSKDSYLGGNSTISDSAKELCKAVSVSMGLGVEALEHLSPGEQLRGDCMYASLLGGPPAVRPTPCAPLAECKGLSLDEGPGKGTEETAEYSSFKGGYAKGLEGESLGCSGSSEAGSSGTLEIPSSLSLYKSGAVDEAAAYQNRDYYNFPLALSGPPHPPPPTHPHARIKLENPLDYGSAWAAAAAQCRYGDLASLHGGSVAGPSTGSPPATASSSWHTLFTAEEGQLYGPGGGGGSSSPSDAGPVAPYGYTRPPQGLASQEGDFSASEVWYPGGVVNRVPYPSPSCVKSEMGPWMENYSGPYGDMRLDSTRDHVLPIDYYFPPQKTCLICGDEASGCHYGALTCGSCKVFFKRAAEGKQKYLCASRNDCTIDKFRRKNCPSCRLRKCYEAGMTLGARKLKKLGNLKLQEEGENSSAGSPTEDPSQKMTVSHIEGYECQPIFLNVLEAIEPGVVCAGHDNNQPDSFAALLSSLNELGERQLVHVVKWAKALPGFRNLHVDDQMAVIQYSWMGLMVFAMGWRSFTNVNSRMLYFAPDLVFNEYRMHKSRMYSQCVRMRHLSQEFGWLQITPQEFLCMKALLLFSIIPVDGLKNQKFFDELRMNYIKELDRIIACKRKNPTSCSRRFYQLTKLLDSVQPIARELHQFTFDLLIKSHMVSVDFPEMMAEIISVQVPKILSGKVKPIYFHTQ
Description: Binding selectivity index (BSI) as ratio of RBA for androgen receptor to non-specific binding of R1881

[4] = %ID/g is percent injected dose per gram of tissue and in vivo distribution of compound obtained after 2 hour (blocked) in prostate (v)/muscle; assay type: ADME, organism-based
[5] = %ID/g is percent injected dose per gram of tissue and in vivo distribution of compound obtained after 2 hour in liver; assay type: ADME, organism-based
[6] = %ID/g is percent injected dose per gram of tissue and in vivo distribution of compound obtained after 4 hour in kidney; assay type: ADME, organism-based
[7] = %ID/g is percent injected dose per gram of tissue and in vivo distribution of compound obtained after 2 hour in prostate (d)/biood; assay type: ADME, organism-based, Prostate gland
[8] = %ID/g is percent injected dose per gram of tissue and in vivo distribution of compound obtained after 2 hour (blocked) in prostate (v); assay type: ADME, organism-based, Prostate gland
[9] = %ID/g is percent injected dose per gram of tissue and in vivo distribution of compound obtained after 1 hour in bladder; assay type: ADME, organism-based, Urinary bladder
[10] = %ID/g is percent injected dose per gram of tissue and in vivo distribution of compound obtained after 4 hour in prostate (v)/blood; assay type: ADME, organism-based; details: other tissue
[11] = %ID/g is percent injected dose per gram of tissue and in vivo distribution of compound obtained after 2 hour in bladder; assay type: ADME, organism-based, Urinary bladder
[12] = %ID/g is percent injected dose per gram of tissue and in vivo distribution of compound obtained after 4 hour in liver; assay type: ADME, organism-based
[13] = %ID/g is percent injected dose per gram of tissue and in vivo distribution of compound obtained after 2 hour in bone; assay type: ADME, organism-based, Bone element
[14] = %ID/g is percent injected dose per gram of tissue and in vivo distribution of compound obtained after 4 hour in fat; assay type: ADME, organism-based, Adipose tissue
[15] = %ID/g is percent injected dose per gram of tissue and in vivo distribution of compound obtained after 2 hour in prostate (d); assay type: ADME, organism-based, Prostate gland
[16] = %ID/g is percent injected dose per gram of tissue and in vivo distribution of compound obtained after 4 hour in lung; assay type: ADME, organism-based
[17] = %ID/g is percent injected dose per gram of tissue and in vivo distribution of compound obtained after 2 hour (blocked) in blood; assay type: ADME, organism-based
[18] = %ID/g is percent injected dose per gram of tissue and in vivo distribution of compound obtained after 2 hour (blocked) in bone; assay type: ADME, organism-based, Bone element
[19] = %ID/g is percent injected dose per gram of tissue and in vivo distribution of compound obtained after 2 hour (low) in blood; assay type: ADME, organism-based
[20] = %ID/g is percent injected dose per gram of tissue and in vivo distribution of compound obtained after 4 hour in blood; assay type: ADME, organism-based
[21] = %ID/g is percent injected dose per gram of tissue and in vivo distribution of compound obtained after 2 hour (blocked) in bladder; assay type: ADME, organism-based, Urinary bladder
[22] = %ID/g is percent injected dose per gram of tissue and in vivo distribution of compound obtained after 4 hour in spleen; assay type: ADME, organism-based
[23] = %ID/g is percent injected dose per gram of tissue and in vivo distribution of compound obtained after 2 hour (blocked) in lung; assay type: ADME, organism-based
[24] = %ID/g is percent injected dose per gram of tissue and in vivo distribution of compound obtained after 2 hour (blocked)i n prostate (d)/biood; assay type: ADME, organism-based, Prostate gland
[25] = %ID/g is percent injected dose per gram of tissue and in vivo distribution of compound obtained after 2 hour in prostate (v)/blood; assay type: ADME, organism-based
[26] = %ID/g is percent injected dose per gram of tissue and in vivo distribution of compound obtained after 2 hour (low) in muscle; assay type: ADME, organism-based

Compound	ID/g [1]	ID/g [2]	logP (physchem)	BSI [3]	ID/g [4]	ID/g [5]	ID/g [6]	ID/g [7]	ID/g [8]	ID/g [9]	ID/g [10]	ID/g [11]	ID/g [12]	ID/g [13]	ID/g [14]	ID/g [15]	ID/g [16]	ID/g [17]	ID/g [18]	ID/g [19]	further results
C[C@]12CCC(=O)C[C@@H]1CC[C@@H]1[C@@H]2[C@@H](F)C[C@]2(C)[C@@H](O)CC[C@@H]12	0.059%	0.291%	3.5	42.8	2.895%	0.451%	0.155%	10.642%	0.069%	1.245%	12.249%	0.165%	0.415%	0.061%	0.012%	0.352%	0.035%	0.048%	0.061%	0.022%	ID/g [20]: 0.028%; ID/g [21]: 0.903%; ID/g [22]: 0.02%; ID/g [23]: 0.039%; ID/g [24]: 1.465%; ID/g [25]: 10.058%; ID/g [26]: 0.026%
C[C@]12C[C@H](F)[C@H]3[C@@H](CC[C@H]4CC(=O)CC[C@@H]43)[C@@H]1CC[C@@H]2O	0.096%	0.084%	3.1	91.8	1.763%	0.992%	0.201%	2.95%	0.054%	3.331%	2.036%	4.549%	0.863%	0.077%	0.022%	0.132%	0.046%	0.061%	0.065%	0.047%	ID/g [20]: 0.035%; ID/g [21]: 11.404%; ID/g [22]: 0.029%; ID/g [23]: 0.054%; ID/g [24]: 0.815%; ID/g [25]: 2.605%; ID/g [26]: 0.037%
